# PMC5118696, “Identification of inhibitors that dually target the new permeability pathway and dihydroorotate dehydrogenase in the blood stage of Plasmodium falciparum” (Scientific Reports, 2016)
# Tested on: Hyp1-NLuc Plasmodium falciparum-infected erythrocytes (new permeability pathway, NPP)
# Test: microbe, parasite or virus in culture
# Settings: Erythrocyte, 0.33 h, read-out: Mean RLU at 28 min (As % of DMSO control)
row,Compound,activity at 2 µM
1,COc1ccc(C(O)(CCC(C)C)C(CN2CCOCC2)c2ccc(Cl)cc2)cc1 (centres unmarked) [MMV000617],116%
2,COc1nc(Nc2ccc(C(C)C)cc2)nc(OC)n1 [MMV007808],110%
3,O=C(O)C1Cc2c([nH]c3ccccc23)C(c2ccc(Cl)cc2Cl)N1 (centres unmarked) [MMV008138],102%
4,Cn1c(=O)c2cc(C(=O)NCCCN3CCCCCC3)sc2c2ccccc21 [MMV019313],104%
5,O=C1CC(O)(C(F)(F)C(F)(F)F)Oc2ccccc21 (centres unmarked) [MMV000972],90.2%
6,CN(C)c1ccc(C=Cc2nc(=O)c3ccccc3o2)cc1 [MMV006309],36.4%
7,CC(Oc1ccc(NC(=O)c2cccs2)cc1)C(=O)c1ccc(Cl)cc1 (centres unmarked) [MMV665886],86.9%
8,OC(CNCc1ccccc1)Cn1c2ccccc2c2ccccc21 (centres unmarked) [MMV000839],107%
9,CCN(CC)CCNc1ncnc2c1[nH]c1ccc(Br)cc12 [MMV006545],120%
10,CC1CC2=C(CC1CNCCCN(C)C)C(C)(C)CCC2 (centres unmarked) [MMV665830],105%
11,N#Cc1nc(Cc2cccc3ccccc23)oc1N1CCN(C(c2ccccc2)c2ccccc2)CC1 [MMV396726],99.9%
12,CN(C)CCNc1cc(-c2ccccc2)nc2ccccc12 [MMV006704],90.8%
13,COc1cccc(C(=O)NC(c2ccc(C)cc2)c2cc(Cl)c3cccnc3c2O)c1 (centres unmarked) [MMV665969],101%
14,CCOc1ccc(CN2CCN(CC(O)COc3ccc(OCC(O)CN4CCN(Cc5ccc(OCC)cc5)CC4)cc3)CC2)cc1 (centres unmarked) [MMV007092],105%
15,COc1ccc(NC(=O)C2c3ccccc3C(=O)N(CC(C)C)C2c2cccs2)cc1Cl (centres unmarked) [MMV000642],94.6%
16,COc1ccc2nc(C)cc(Nc3ccc(Cl)cc3)c2c1 [MMV007875],98.8%
17,CCOc1cc2c(cc1OCC)C(c1cc(OC)c(O)cc1Cl)NCC2 (centres unmarked) [MMV008956],102%

row,Compound,activity at 2 µM
1,Cc1ccc(OCCCCCCNCCO)c(C)c1 [MMV666020],97%
2,Clc1cc(Br)ccc1-c1ccc(CNCC2CCNCC2)o1 [MMV019918],114%
3,N=c1c2ccccc2nnn1-c1cccc(C(F)(F)F)c1 [MMV665923],94.3%
4,COc1ccc(C2c3ccc4ccccc4c3Oc3ncn(CCCn4ccnc4)c(=N)c32)cc1OC (centres unmarked) [MMV667490],102%
5,CC(NCc1ccccc1)c1cc(Cl)ccc1O (centres unmarked) [MMV665789],107%
6,O=C(NC1CCCC1)c1ccc(N2CCC(NCc3cccc(C(F)(F)F)c3)CC2)cc1 [MMV666070],111%
7,CNCCCNc1ccnc2cc(Cl)ccc12 [MMV020500],98.7%
8,COc1cc(OC)cc(N2C(=O)N(Cc3ccc(C(C)(C)C)cc3)c3ccccc3S2(=O)=O)c1 [MMV008173],103%
9,CCOC(=O)c1c(C)n(-c2ccc(Cl)cc2)c2ccc(OC(=O)C=Cc3ccccc3)cc12 [MMV666600],101%
10,CC(C)(C)c1ccc2c(c1)CN(Cc1ccc(Cl)cc1)CO2 [MMV000442],109%
11,O=C(Nc1cccc(C(F)(F)F)c1)c1cc(Cl)ccc1O [MMV665807],99%
12,CCCn1c(=N)c(C(=O)NC2CCCCC2)cc2c(=O)n3cccc(C)c3nc21 [MMV008829],106%
13,Cc1ccccc1OCCSc1nc2ccc(NC(=O)c3ccccc3)cc2s1 [MMV007577],97.3%
14,Oc1c(CN2CCN(c3ccccc3F)CC2)cc(Br)c2cccnc12 [MMV000760],112%
15,CCCCCn1c(=N)n(CC(O)COc2cccc(C)c2)c2ccccc21 (centres unmarked) [MMV000444],95.8%
16,CN(N=O)C1=C(NC2CCCCC2)C(=O)c2ccccc2C1=O [MMV667492],103%
17,Cc1cc(C=C2SC(=Nc3ccccc3)N(C3CCCC3)C2=O)c(C)n1-c1ccc(Cl)cc1 [MMV666688],99.9%

# Tested on: Hyp1-NLuc Plasmodium falciparum-infected erythrocytes (new permeability pathway, NPP)
# Test: microbe, parasite or virus in culture
# Settings: Erythrocyte, 0.33 h, read-out: % of control remaining
row,Compound,activity at 2 µM
1,COc1ccc(C(O)(CCC(C)C)C(CN2CCOCC2)c2ccc(Cl)cc2)cc1 (centres unmarked) [MMV000617],131%
2,COc1nc(Nc2ccc(C(C)C)cc2)nc(OC)n1 [MMV007808],110%
3,O=C(O)C1Cc2c([nH]c3ccccc23)C(c2ccc(Cl)cc2Cl)N1 (centres unmarked) [MMV008138],102%
4,Cn1c(=O)c2cc(C(=O)NCCCN3CCCCCC3)sc2c2ccccc21 [MMV019313],74.1%
5,O=C1CC(O)(C(F)(F)C(F)(F)F)Oc2ccccc21 (centres unmarked) [MMV000972],82.2%
6,CN(C)c1ccc(C=Cc2nc(=O)c3ccccc3o2)cc1 [MMV006309],19%
7,CC(Oc1ccc(NC(=O)c2cccs2)cc1)C(=O)c1ccc(Cl)cc1 (centres unmarked) [MMV665886],84.1%
8,OC(CNCc1ccccc1)Cn1c2ccccc2c2ccccc21 (centres unmarked) [MMV000839],110%
9,CCN(CC)CCNc1ncnc2c1[nH]c1ccc(Br)cc12 [MMV006545],110%
10,CC1CC2=C(CC1CNCCCN(C)C)C(C)(C)CCC2 (centres unmarked) [MMV665830],104%
11,N#Cc1nc(Cc2cccc3ccccc23)oc1N1CCN(C(c2ccccc2)c2ccccc2)CC1 [MMV396726],99.5%
12,CN(C)CCNc1cc(-c2ccccc2)nc2ccccc12 [MMV006704],92%
13,COc1cccc(C(=O)NC(c2ccc(C)cc2)c2cc(Cl)c3cccnc3c2O)c1 (centres unmarked) [MMV665969],106%
14,CCOc1ccc(CN2CCN(CC(O)COc3ccc(OCC(O)CN4CCN(Cc5ccc(OCC)cc5)CC4)cc3)CC2)cc1 (centres unmarked) [MMV007092],98.2%
15,COc1ccc(NC(=O)C2c3ccccc3C(=O)N(CC(C)C)C2c2cccs2)cc1Cl (centres unmarked) [MMV000642],94%
16,COc1ccc2nc(C)cc(Nc3ccc(Cl)cc3)c2c1 [MMV007875],99.5%
17,CCOc1cc2c(cc1OCC)C(c1cc(OC)c(O)cc1Cl)NCC2 (centres unmarked) [MMV008956],100%

row,Compound,activity at 2 µM
1,Cc1ccc(OCCCCCCNCCO)c(C)c1 [MMV666020],97.1%
2,Clc1cc(Br)ccc1-c1ccc(CNCC2CCNCC2)o1 [MMV019918],111%
3,N=c1c2ccccc2nnn1-c1cccc(C(F)(F)F)c1 [MMV665923],89.5%
4,COc1ccc(C2c3ccc4ccccc4c3Oc3ncn(CCCn4ccnc4)c(=N)c32)cc1OC (centres unmarked) [MMV667490],98.4%
5,CC(NCc1ccccc1)c1cc(Cl)ccc1O (centres unmarked) [MMV665789],117%
6,O=C(NC1CCCC1)c1ccc(N2CCC(NCc3cccc(C(F)(F)F)c3)CC2)cc1 [MMV666070],123%
7,CNCCCNc1ccnc2cc(Cl)ccc12 [MMV020500],97.7%
8,COc1cc(OC)cc(N2C(=O)N(Cc3ccc(C(C)(C)C)cc3)c3ccccc3S2(=O)=O)c1 [MMV008173],115%
9,CCOC(=O)c1c(C)n(-c2ccc(Cl)cc2)c2ccc(OC(=O)C=Cc3ccccc3)cc12 [MMV666600],100%
10,CC(C)(C)c1ccc2c(c1)CN(Cc1ccc(Cl)cc1)CO2 [MMV000442],113%
11,O=C(Nc1cccc(C(F)(F)F)c1)c1cc(Cl)ccc1O [MMV665807],105%
12,CCCn1c(=N)c(C(=O)NC2CCCCC2)cc2c(=O)n3cccc(C)c3nc21 [MMV008829],105%
13,Cc1ccccc1OCCSc1nc2ccc(NC(=O)c3ccccc3)cc2s1 [MMV007577],98.1%
14,Oc1c(CN2CCN(c3ccccc3F)CC2)cc(Br)c2cccnc12 [MMV000760],114%
15,CCCCCn1c(=N)n(CC(O)COc2cccc(C)c2)c2ccccc21 (centres unmarked) [MMV000444],99.2%
16,CN(N=O)C1=C(NC2CCCCC2)C(=O)c2ccccc2C1=O [MMV667492],90.8%
17,Cc1cc(C=C2SC(=Nc3ccccc3)N(C3CCCC3)C2=O)c(C)n1-c1ccc(Cl)cc1 [MMV666688],98.7%
